According to US8796470B2 (AbbVie Inc., priority 2010, dated 2014):

Target: T1, human Cav2.2 (Homo sapiens, UniProt Q00975)
T1 construct: IMR32 cells endogenously expressing human Cav2.2; endogenous in cells; host or cells: IMR32 cells (human neuroblastoma)
Test: Assessment of calcium channel activity using FLIPR (Ca2+ influx in IMR32 cells)
Type: cell-based
Details: IMR32 cells endogenously expressing human Cav2.2, Calcium 4 dye, 60 minute pre-incubation, 2 μM nifedipine, depolarized with 80 mM KCl, 5 mM CaCl2
Procedure: (i) In Vitro Methods—Assessment of Calcium Channel Activity Using FLIPR:
IMR32 cells endogenously expressing human Cav2.2 were assayed for Ca^2+ influx using a no-wash calcium indicator dye (Calcium 4 dye: Molecular Probes) and FLIPR technology (Lubin, M. L.; Reitz, T. L.; Todd, M. J.; Flores, C. M.; Qin, N.; Xin, H. Assay and Drug Development Technologies 2006, 4(6), 689-694.). The IMR32 cells were maintained in MEM media containing 10% (v/v) FBS, 1% (v/v) antibiotic/antimitotic, 1% (v/v) sodium pyruvate and 1% (v/v) MEM NEAA. Following dissociation in 0.05% (v/v) trypsin/EDTA, cells were seeded into black 1×96-well plates (Corning Cellbind) at a density of 1−1.2×10^5 cells/well and incubated in the maintenance media above for 48 hours at 37° C. Immediately prior to performing the assay the media was removed and cells were loaded for 1.5 hours with 1×Calcium 4 dye prepared in HBSS (137 mM NaCl, 5.4 mM KCl, 0.25 mM Na2HPO4, 0.44 mM KH2PO4, 1.3 mM CaCl2, 1 mM MgSO4, 4.2 mM NaHCO3) containing HEPES pH 7.4 at room temperature. After dye loading and a subsequent 60 minute pre-incubation with compounds (full log dilutions from 10 μM to 0.1 nM) in the presence of 1.3 mM CaCl2 and 2 μM nifedipine to block endogenous L-type channels, the external Ca^2+ concentration was increased to 5 mM CaCl2 and the cells concomitantly depolarized with 80 mM KCl to assay channel activity. To determine the IC50 values, the percent inhibition of the compound at each concentration was determined relative to the activity in the absence of inhibitor, and data was fitted using non-linear regression sigmoidal dose response curve analysis with GraphPad Prism®.

T1 sequence (Q00975 whole entry): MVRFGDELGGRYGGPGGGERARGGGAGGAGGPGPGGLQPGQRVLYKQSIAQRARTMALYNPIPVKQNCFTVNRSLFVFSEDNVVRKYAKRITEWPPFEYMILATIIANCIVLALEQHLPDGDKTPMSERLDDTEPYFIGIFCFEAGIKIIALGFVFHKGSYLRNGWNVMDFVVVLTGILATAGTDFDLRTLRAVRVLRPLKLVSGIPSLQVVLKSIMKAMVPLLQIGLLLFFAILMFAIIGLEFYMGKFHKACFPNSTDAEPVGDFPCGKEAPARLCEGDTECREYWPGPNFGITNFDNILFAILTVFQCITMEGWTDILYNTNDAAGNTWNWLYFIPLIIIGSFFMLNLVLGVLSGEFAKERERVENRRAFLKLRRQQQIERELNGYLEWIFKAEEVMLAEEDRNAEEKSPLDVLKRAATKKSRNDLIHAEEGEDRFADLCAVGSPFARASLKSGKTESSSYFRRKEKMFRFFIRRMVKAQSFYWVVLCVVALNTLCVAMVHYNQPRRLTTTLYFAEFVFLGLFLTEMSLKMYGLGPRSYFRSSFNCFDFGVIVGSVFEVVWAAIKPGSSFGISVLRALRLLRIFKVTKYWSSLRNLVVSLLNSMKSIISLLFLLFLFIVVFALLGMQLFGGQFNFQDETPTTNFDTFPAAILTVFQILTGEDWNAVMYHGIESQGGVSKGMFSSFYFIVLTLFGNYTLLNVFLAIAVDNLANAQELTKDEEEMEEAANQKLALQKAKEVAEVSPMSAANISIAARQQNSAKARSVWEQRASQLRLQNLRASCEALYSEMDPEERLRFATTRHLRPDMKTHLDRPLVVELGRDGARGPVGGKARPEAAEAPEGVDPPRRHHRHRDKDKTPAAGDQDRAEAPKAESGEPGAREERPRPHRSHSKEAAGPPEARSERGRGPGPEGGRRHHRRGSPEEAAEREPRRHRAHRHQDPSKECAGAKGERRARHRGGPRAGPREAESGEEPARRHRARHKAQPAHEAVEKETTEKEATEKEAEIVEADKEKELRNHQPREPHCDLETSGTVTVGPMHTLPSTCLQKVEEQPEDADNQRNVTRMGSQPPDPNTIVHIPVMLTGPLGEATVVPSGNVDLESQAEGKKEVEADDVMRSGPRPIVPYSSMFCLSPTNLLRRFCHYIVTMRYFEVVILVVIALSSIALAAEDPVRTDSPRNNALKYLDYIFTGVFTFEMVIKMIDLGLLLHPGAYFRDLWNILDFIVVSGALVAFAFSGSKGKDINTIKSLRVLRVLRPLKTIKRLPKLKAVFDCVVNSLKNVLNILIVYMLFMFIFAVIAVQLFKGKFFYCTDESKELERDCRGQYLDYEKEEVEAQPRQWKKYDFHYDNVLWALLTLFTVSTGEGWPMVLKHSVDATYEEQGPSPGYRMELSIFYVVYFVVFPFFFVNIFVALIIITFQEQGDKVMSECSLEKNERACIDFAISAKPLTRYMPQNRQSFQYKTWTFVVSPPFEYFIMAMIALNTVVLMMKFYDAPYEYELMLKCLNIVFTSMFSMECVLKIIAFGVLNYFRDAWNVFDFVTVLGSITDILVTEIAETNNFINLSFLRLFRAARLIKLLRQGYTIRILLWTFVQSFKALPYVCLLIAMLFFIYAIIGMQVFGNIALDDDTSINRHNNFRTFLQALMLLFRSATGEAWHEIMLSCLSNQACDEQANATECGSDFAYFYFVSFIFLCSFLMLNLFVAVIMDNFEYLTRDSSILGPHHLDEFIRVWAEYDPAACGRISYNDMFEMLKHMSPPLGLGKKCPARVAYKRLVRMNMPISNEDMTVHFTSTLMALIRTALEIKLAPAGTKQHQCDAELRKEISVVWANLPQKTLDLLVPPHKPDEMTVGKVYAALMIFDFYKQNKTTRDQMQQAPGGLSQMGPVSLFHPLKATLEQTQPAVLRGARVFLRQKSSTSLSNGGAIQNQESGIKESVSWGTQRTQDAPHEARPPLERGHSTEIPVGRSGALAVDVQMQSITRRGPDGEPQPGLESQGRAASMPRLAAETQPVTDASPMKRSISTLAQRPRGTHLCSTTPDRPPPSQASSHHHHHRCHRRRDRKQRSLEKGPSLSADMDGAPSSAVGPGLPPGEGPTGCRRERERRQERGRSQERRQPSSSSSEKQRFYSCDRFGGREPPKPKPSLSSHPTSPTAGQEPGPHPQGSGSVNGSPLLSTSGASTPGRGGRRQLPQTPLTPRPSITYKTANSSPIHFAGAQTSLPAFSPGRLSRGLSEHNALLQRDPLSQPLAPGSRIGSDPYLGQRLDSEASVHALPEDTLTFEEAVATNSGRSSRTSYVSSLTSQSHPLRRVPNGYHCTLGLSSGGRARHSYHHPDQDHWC
T1 sequence (P54289 25-956 partner limits assumed): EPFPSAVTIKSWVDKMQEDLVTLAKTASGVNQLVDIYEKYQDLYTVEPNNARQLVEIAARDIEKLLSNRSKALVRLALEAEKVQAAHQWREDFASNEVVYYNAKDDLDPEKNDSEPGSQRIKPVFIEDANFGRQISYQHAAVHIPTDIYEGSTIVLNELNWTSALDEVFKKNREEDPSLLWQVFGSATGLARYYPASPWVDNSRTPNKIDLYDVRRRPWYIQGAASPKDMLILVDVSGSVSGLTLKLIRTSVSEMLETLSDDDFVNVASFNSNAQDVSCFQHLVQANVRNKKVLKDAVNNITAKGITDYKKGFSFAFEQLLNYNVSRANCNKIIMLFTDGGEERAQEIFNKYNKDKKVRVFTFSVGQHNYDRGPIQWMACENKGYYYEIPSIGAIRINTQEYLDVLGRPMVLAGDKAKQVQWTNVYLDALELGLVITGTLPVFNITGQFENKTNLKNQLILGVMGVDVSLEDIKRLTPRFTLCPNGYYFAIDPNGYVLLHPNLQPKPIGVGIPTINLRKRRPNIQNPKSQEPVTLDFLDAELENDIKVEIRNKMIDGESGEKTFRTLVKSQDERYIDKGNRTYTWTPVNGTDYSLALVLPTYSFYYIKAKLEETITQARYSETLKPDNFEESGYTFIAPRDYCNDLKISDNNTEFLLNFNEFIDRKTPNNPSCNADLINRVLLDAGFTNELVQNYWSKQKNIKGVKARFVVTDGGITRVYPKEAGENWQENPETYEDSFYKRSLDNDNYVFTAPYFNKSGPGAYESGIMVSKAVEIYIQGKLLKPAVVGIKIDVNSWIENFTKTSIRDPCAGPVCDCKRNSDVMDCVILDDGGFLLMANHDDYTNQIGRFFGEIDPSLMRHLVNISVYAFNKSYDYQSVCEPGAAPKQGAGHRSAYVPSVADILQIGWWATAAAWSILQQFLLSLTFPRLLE
T1 sequence (P54289 957-1103 partner limits assumed): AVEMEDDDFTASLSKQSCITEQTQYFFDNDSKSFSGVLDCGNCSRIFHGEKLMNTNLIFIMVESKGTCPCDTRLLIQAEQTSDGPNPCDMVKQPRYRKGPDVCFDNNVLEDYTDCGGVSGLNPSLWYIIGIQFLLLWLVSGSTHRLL
T1 sequence (P54284 whole entry partner): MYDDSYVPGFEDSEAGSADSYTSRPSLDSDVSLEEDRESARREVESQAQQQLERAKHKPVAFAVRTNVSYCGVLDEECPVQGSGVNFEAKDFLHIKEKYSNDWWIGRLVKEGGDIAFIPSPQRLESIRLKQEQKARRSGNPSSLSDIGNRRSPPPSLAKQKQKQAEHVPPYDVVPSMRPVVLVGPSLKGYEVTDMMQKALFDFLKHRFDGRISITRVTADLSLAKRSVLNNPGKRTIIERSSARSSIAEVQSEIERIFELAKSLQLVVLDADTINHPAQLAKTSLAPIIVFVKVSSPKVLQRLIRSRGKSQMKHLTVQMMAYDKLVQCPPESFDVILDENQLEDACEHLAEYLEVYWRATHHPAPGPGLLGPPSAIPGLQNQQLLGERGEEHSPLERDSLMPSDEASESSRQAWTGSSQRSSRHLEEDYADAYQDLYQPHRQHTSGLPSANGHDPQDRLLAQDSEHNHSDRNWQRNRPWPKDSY

SMILES	IC50 [µM]
O=C(Nc1cccc(F)c1)[C@H]1CC[C@@H]2CN(c3cccc(C(F)(F)F)n3)C[C@@H]21 [Example 56, (3aS,4S,6aS)—N-(3-fluorophenyl)-2-[6-(trifluoromethyl)pyridin-2-yl]octahydrocyclopenta[c]pyrrole-4-carboxamide]	8.9
FC(F)(F)c1cccc(N2C[C@H]3CC[C@H](n4cnc(-c5ccc(Cl)cc5)c4)[C@H]3C2)n1 [Example 57, (3aR,4S,6aS)-4-[4-(4-chlorophenyl)-1H-imidazol-1-yl]-2-[6-(trifluoromethyl)pyridin-2-yl]octahydrocyclopenta[c]pyrrole]	5.79
FC(F)(F)c1cccc(N2C[C@H]3CC[C@H](n4ccnc4-c4ccccc4)[C@H]3C2)n1 [Example 62, (3aR,4S,6aS)-4-(2-phenyl-1H-imidazol-1-yl)-2-[6-(trifluoromethyl)pyridin-2-yl]octahydrocyclopenta[c]pyrrole]	1.03
Cc1cnn([C@H]2CC[C@@H]3CN(c4cccc(C(F)(F)F)n4)C[C@@H]32)c1 [Example 63, (3aR,4S,6aS)-4-(4-methyl-1H-pyrazol-1-yl)-2-[6-(trifluoromethyl)pyridin-2-yl]octahydrocyclopenta[c]pyrrole]	2.78
Cc1ccn([C@H]2CC[C@@H]3CN(c4cccc(C(F)(F)F)n4)C[C@@H]32)n1 [Example 66, (3aR,4S,6aS)-4-(3-methyl-1H-pyrazol-1-yl)-2-[6-(trifluoromethyl)pyridin-2-yl]octahydrocyclopenta[c]pyrrole]	5.74
Cc1cn([C@H]2CC[C@@H]3CN(c4cccc(C(F)(F)F)n4)C[C@@H]32)cn1 [Example 67, (3aR,4S,6aS)-4-(4-methyl-1H-imidazol-1-yl)-2-[6-(trifluoromethyl)pyridin-2-yl]octahydrocyclopenta[c]pyrrole]	4.33
C[C@]1(NC(=O)[C@@H]2C[C@@H](F)CN2)CC[C@@H]2CN(c3cccc(C(F)(F)F)n3)C[C@@H]21 [Example 70, (4R)-4-fluoro-N-{(3aR,4S,6aS)-4-methyl-2-[6-(trifluoromethyl)pyridin-2-yl]octahydrocyclopenta[c]pyrrol-4-yl}-L-prolinamide]	3.09
CN[C@@H](CC(C)C)C(=O)N[C@@]1(C)CC[C@@H]2CN(c3cccc(C(F)(F)F)n3)C[C@@H]21 [Example 71, N^2-methyl-N-{(3aR,4S,6aS)-4-methyl-2-[6-(trifluoromethyl)pyridin-2-yl]octahydrocyclopenta[c]pyrrol-4-yl}-L-leucinamide]	0.78

More lines, in order of falling IC50, values ahead:

IC50 [µM]	SMILES
10.8	O[C@H]1[C@H]2CN(c3cccc(C(F)(F)F)n3)C[C@H]2C[C@H]1n1ccnc1 [Example 68, (3aR,4S,5R,6aS)-5-(1H-imidazol-1-yl)-2-[6-(trifluoromethyl)pyridin-2-yl]octahydrocyclopenta[c]pyrrol-4-ol]
9.15	O[C@H]1[C@H]2CN(c3cccc(C(F)(F)F)n3)C[C@H]2C[C@@H]1n1ccnc1 [Example 69, (3aR,4S,5S,6aS)-5-(1H-imidazol-1-yl)-2-[6-(trifluoromethyl)pyridin-2-yl]octahydrocyclopenta[c]pyrrol-4-ol]
4.85	FC(F)(F)c1cccc(N2C[C@H]3CC[C@H](n4ncc5ccccc54)[C@H]3C2)n1 [Example 65, 1-{(3aR,4S,6aS)-2-[6-(trifluoromethyl)pyridin-2-yl]octahydrocyclopenta[c]pyrrol-4-yl}-1H-indazole]
3.6	Fc1cccc2ncn([C@H]3CC[C@@H]4CN(c5cccc(C(F)(F)F)n5)C[C@@H]43)c12 [Example 64, 7-fluoro-1-{(3aR,4S,6aS)-2-[6-(trifluoromethyl)pyridin-2-yl]octahydrocyclopenta[c]pyrrol-4-yl}-1H-benzimidazole]
3.57	Cc1nccn1[C@H]1CC[C@@H]2CN(c3cccc(C(F)(F)F)n3)C[C@@H]21 [Example 61, (3aR,4S,6aS)-4-(2-methyl-1H-imidazol-1-yl)-2-[6-(trifluoromethyl)pyridin-2-yl]octahydrocyclopenta[c]pyrrole]
3.15	FC(F)(F)c1cccc(N2C[C@H]3CC[C@H](n4cnc(-c5ccccc5)c4)[C@H]3C2)n1 [Example 58, (3aR,4S,6aS)-4-(4-phenyl-1H-imidazol-1-yl)-2-[6-(trifluoromethyl)pyridin-2-yl]octahydrocyclopenta[c]pyrrole]
1.96	FC(F)(F)c1cccc(N2C[C@H]3CC[C@H](n4cnc5ccccc54)[C@H]3C2)n1 [Example 60, 1-{(3aR,4S,6aS)-2-[6-(trifluoromethyl)pyridin-2-yl]octahydrocyclopenta[c]pyrrol-4-yl}-1H-benzimidazole]
1.15	C[C@]1(NC(=O)CCC(F)(F)F)CC[C@@H]2CN(c3cccc(C(F)(F)F)n3)C[C@@H]21 [Example 72, 4,4,4-trifluoro-N-{(3aR,4S,6aS)-4-methyl-2-[6-(trifluoromethyl)pyridin-2-yl]octahydrocyclopenta[c]pyrrol-4-yl}butanamide]
